Laboratory results as given in US11492335B2, “Aryl or heteroaryl triazolone derivatives or salts thereof, or pharmaceutical compositions comprising the same” (YUHAN CORPORATION, priority 2018, dated 2022).
Counter-ions that a name gives are not always drawn. Like-named read-outs stand apart in the source and are kept apart here.

Experiments:
Type in all cases: biochemical
recombinant human VAP-1 = target: T1, recombinant human VAP-1 (Homo sapiens, UniProt Q16853); assay: Activity on recombinant human VAP-1, Amplex Red HRP-coupled hydrogen peroxide assay, benzylamine substrate; settings: recombinant human VAP-1, benzylamine substrate, read-out: Inhibitory Activity (IC50, nM) human VAP-1
T1 construct: purchased R&D systems
T1 sequence (Q16853 1-763): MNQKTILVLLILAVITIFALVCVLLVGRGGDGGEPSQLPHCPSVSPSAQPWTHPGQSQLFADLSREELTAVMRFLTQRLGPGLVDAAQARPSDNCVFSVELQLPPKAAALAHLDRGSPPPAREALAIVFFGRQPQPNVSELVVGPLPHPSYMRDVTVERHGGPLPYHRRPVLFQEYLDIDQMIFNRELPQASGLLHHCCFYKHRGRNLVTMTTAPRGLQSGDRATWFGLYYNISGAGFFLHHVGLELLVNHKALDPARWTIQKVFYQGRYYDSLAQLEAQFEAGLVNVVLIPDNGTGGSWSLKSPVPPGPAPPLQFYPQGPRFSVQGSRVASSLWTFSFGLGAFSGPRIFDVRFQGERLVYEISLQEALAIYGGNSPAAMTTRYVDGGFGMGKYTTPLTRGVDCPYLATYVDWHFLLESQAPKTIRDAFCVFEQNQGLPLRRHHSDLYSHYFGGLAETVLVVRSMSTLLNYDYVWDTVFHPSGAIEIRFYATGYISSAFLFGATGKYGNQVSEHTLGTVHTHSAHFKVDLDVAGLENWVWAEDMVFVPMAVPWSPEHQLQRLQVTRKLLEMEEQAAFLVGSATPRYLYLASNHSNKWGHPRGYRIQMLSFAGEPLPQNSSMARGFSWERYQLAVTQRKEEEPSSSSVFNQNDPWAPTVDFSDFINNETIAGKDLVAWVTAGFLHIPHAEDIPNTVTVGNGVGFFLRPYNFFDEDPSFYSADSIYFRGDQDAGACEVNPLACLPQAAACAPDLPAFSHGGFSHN
Outline: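 Enzyme in 50 mM sodium phosphate (pH 7.4) is exposed to test compound for 30 min at 37 °C. Benzylamine (1 mM) with HRP and Amplex Red then starts the reaction, and the fluorescence rate, relative to a DMSO-only control, gives IC50.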

[1] = target: T2, recombinant human MAO-A (monoamine oxidase-A) (Homo sapiens, UniProt P21397); assay: Activity on recombinant human MAO-A, Amplex Red method, 0.5 mM tyramine substrate; settings: read-out: Inhibitory Activity (IC50, nM) MAO-A
T2 construct: purchased Sigma-Aldrich
T2 sequence (P21397 1-527): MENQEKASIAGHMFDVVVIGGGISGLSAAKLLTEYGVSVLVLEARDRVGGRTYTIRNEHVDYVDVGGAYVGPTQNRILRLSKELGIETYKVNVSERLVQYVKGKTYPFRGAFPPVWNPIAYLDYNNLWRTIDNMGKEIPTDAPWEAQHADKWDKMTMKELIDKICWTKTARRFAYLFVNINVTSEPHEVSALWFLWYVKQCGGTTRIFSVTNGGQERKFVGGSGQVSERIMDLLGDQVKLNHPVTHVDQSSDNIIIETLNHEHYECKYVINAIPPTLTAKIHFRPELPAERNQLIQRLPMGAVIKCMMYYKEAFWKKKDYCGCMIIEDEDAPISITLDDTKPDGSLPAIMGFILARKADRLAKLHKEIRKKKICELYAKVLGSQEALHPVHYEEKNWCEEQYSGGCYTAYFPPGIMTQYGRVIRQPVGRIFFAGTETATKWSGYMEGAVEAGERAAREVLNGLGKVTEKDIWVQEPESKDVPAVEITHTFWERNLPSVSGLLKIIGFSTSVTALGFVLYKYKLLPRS
Outline: (§1)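 Enzyme in pH 7.4 phosphate buffer; 30 min, 37° C with compound (DMSO <1%); start with 200 uM Amplex Red + 1 U/mL HRP + tyramine 0.5 mM (MAO-A) or benzylamine 1 mM (MAO-B); kinetic read ex 544/em 590, 1-2 h; % rate decrease vs DMSO control → IC50, 4-parameter fit.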

[2] = target: T3, recombinant human MAO-B (monoamine oxidase-B) (Homo sapiens, UniProt P27338); assay: Activity on recombinant human MAO-B, Amplex Red method, 1 mM benzylamine substrate; settings: read-out: Inhibitory Activity (IC50, nM) MAO-B
T3 construct: purchased Sigma-Aldrich
T3 sequence (P27338 1-520): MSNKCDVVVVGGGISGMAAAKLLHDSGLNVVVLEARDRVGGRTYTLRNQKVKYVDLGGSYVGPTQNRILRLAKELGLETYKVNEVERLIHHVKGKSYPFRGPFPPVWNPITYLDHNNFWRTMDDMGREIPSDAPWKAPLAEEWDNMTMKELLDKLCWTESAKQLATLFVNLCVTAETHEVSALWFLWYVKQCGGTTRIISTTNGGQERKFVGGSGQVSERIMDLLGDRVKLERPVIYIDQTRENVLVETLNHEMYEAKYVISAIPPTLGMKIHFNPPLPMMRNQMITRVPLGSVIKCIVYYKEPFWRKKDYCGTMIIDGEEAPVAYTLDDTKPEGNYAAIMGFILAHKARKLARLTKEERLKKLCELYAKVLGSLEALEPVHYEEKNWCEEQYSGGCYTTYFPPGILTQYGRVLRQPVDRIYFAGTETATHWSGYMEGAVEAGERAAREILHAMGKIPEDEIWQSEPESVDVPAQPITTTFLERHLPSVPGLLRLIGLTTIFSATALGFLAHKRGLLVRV
Outline: as §1

[3] = target: T4, recombinant human DAO (diamine oxidase) (Homo sapiens, UniProt P19801); assay: Activity on recombinant human DAO, Amplex Red method, 1 mM putrescine substrate; settings: recombinant human DAO, read-out: Inhibitory Activity (IC50, nM) DAO
T4 construct: purchased R&D systems
T4 sequence (P19801 20-751): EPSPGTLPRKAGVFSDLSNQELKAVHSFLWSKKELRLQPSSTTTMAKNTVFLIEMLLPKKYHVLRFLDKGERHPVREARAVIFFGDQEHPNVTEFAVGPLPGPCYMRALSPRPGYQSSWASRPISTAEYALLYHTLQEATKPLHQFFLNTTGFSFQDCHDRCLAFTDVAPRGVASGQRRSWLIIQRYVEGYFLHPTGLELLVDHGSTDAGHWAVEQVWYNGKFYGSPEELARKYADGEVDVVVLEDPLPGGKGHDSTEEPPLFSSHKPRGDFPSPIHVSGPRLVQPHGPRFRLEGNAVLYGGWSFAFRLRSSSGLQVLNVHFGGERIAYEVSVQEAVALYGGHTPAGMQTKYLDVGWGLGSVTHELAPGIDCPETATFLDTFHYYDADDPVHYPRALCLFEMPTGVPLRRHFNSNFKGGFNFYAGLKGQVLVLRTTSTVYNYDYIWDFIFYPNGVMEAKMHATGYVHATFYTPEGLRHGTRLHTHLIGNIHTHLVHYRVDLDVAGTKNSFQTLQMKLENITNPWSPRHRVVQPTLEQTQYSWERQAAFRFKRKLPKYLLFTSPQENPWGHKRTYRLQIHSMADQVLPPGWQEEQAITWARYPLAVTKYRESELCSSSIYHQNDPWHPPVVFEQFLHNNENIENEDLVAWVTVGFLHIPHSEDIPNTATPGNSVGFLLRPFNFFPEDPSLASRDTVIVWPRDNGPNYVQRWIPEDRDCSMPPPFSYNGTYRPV
Outline: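 Inhibition of recombinant human DAO (diamine oxidase, R&D systems) was assessed with the Amplex Red Hydrogen Peroxide Assay Kit. Hydrogen peroxide produced from 1 mM putrescine was detected through an HRP-coupled reaction that converts Amplex Red into fluorescent resorufin, read at 544 nm excitation and 590 nm emission. IC50 values came from four-parameter logistic fits in GraphPad Prism.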

[4] = 1 mM putrescine, * = between 10 and 100 nM, ** = between 300 and 1000 nM

Structure (SMILES)	IC50 (recombinant human VAP-1) [nM]	IC50 ([1]; 0.5 mM tyramine substrate) [nM]	IC50 ([2]; 1 mM benzylamine substrate) [nM]	IC50 ([3]; 1 mM putrescine substrate) [nM]	IC50 (recombinant human VAP-1; 30 min preincubation at 37° C.) [nM]	IC50 ([1]; 0.5 mM tyramine) [nM]	IC50 ([2]; 1 mM benzylamine) [nM]	IC50 [3, 4] [nM]
COc1ccc(C#Cc2cccc(-n3cnn(C/C(=C/F)CN)c3=O)n2)cn1 [Example 247, 2-[(2E)-2-(aminomethyl)-3-fluoroprop-2-en-1-yl]-4-{6-[(6-methoxypyridin-3-yl)ethynyl]pyridin-2-yl}-2,4-dihydro-3H-1,2,4-triazol-3-one]	0.3	> 100000	4300	14	–	–	–	–
Cc1c(-c2ccc(S(C)(=O)=O)cc2)cccc1-n1cnn(C/C(=C/F)CN)c1=O [Example 106, 2-[(2E)-2-(aminomethyl)-3-fluoroprop-2-en-1-yl]-4-[2-methyl-4′-(methylsulfonyl)biphenyl-3-yl]-2,4-dihydro-3H-1,2,4-triazol-3-one]	–	–	–	–	4.7	> 100000	> 10000	310
Cc1cc(-c2ccc(N3CCNCC3)nc2)cnc1-n1cnn(C/C(=C/F)CN)c1=O [Example 259, 2-[(E)-2-(aminomethyl)-3-fluoro-allyl]-4-[3-methyl-5-(6-piperazin-1-yl-3-pyridyl)-2-pyridyl]-1,2,4-triazol-3-one]	1.4	> 100000	> 100000	29000	–	–	–	–
CC(C)c1nc(-c2ccc(-c3cccc(-n4cnn(C/C(=C/F)CN)c4=O)n3)cc2)no1 [Example 180, 2-[(2E)-2-(aminomethyl)-3-fluoroprop-2-en-1-yl]-4-(6-{4-[5-(propan-2-yl)-1,2,4-oxadiazol-3-yl]phenyl}pyridin-2-yl)-2,4-dihydro-3H-1,2,4-triazol-3-one]	2.8	120000	180	1.4	–	–	–	–
CS(=O)(=O)c1ccc(-c2cnc(-n3cnn(C/C(=C/F)CN)c3=O)cn2)cc1 [Example 217, 2-[(2E)-2-(aminomethyl)-3-fluoroprop-2-en-1-yl]-4-{5-[4-(methylsulfonyl)phenyl]pyrazin-2-yl}-2,4-dihydro-3H-1,2,4-triazol-3-one]	2.2	> 100000	110	< 100	–	–	–	–
CC(=O)Nc1ccc(-c2ccc(-n3cnn(C/C(=C\F)CN)c3=O)nc2)cc1 [Example 130, N-[4-(6-{1-[(2Z)-2-(aminomethyl)-3-fluoroprop-2-en-1-yl]-5-oxo-1,5-dihydro-4H-1,2,4-triazol-4-yl}pyridin-3-yl)phenyl]acetamide hydrochloride]	–	–	–	–	0.39	26000	20	1 to 10
Cc1cc(-c2ccc3c(c2)OCO3)cnc1-n1cnn(C/C(=C/F)CN)c1=O [Example 150, 2-[(2E)-2-(aminomethyl)-3-fluoroprop-2-en-1-yl]-4-[5-(2H-1,3-benzodioxol-5-yl)-3-methylpyridin-2-yl]-2,4-dihydro-3H-1,2,4-triazol-3-one hydrochloride]	–	–	–	–	0.35	4800	170	480
NC/C(=C\F)Cn1ncn(-c2cccc(-c3ccc4c(c3)NC(=O)CO4)c2)c1=O [Example 103, 6-(3-{1-[(2E)-2-(aminomethyl)-3-fluoroprop-2-en-1-yl]-5-oxo-1,5-dihydro-4H-1,2,4-triazol-4-yl}phenyl)-2H-1,4-benzoxazin-3(4H)-one hydrochloride]	–	–	–	–	0.6	26500	1200	2.5
NC/C(=C\F)Cn1ncn(-c2ccc(OCc3ccccc3)cc2)c1=O [Example 8, 2-[(2E)-2-(aminomethyl)-3-fluoroprop-2-en-1-yl]-4-[4-(benzyloxy)phenyl]-2,4-dihydro-3H-1,2,4-triazol-3-one hydrochloride]	–	–	–	–	0.6	54000	10	38
NC/C(=C\F)Cn1ncn(-c2ncc(-c3ccc(-c4ncon4)cc3)s2)c1=O [Example 229]	0.98	130	12	< 100	–	–	–	–
